Measurements published in patent US9399649B2, “Compounds for treating spinal muscular atrophy” (PTC Therapeutics Inc., priority 2012, dated 2016).

Legend:
[1] = test system: full length SMN2 minigene mRNA containing SMN2 exon 7; assay: SMN2 minigene mRNA splicing RT-qPCR assay in cultured cells; assay type: cell-based, human; settings: Homo sapiens, HEK293-H; HEK293H cells stably transfected with SMN2-A minigene, 24 hours, 7-point concentration curve; concentration giving 1.5-fold full length SMN2 mRNA vs vehicle; read-out: EC1.5x for production of full length SMN2 mRNA
Outline: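 HEK293H cells stably carrying SMN2-A minigene treated 24 h (37 °C) with compound, 7-point 3.16-fold dilution, duplicates. Multiplex RT-qPCR on lysate with exon 7/luciferase primers and exon 7–8 junction probe (minigene-specific). Full-length transcript normalised to GAPDH by modified ΔΔCt, expressed relative to vehicle-treated cells.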

Smn protein = Smn protein assay in cultured cells (SMN HTRF); assay type: cell-based, human; settings: SMA patient fibroblast cells (GM03813), 48 hours; for EC1.5x for Smn protein expression: 7-point concentration curve, concentration producing 1.5 times Smn protein vs DMSO vehicle; for maximum fold (Fold) increase of Smn protein: 7-point concentration data, relative to vehicle control
Outline: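 SMA patient fibroblasts, 5,000 per well in DMEM-10% FBS, exposed 48 h at 37° C. to a 7-point, 3.16-fold compound series in triplicate. RIPA lysates read by SMN HTRF (665/620 nm, overnight at room temperature); ΔF over blank expressed as fold of vehicle.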

Structure (SMILES) | melting point [°C] | EC (1.5-fold) [1] [µM] | EC1.5x for Smn protein expression (Smn protein) | maximum fold (Fold) increase of Smn protein (Smn protein)
CCN1[C@H](C)CN(c2ccc3cc(-c4cn5cc(C)nc(C)c5n4)oc(=O)c3c2)C[C@@H]1C [Cpd 147, 3-(6,8-dimethylimidazo[1,2-a]pyrazin-2-yl)-7-[(3R,5S)-4-ethyl-3,5-dimethylpiperazin-1-yl]-1H-isochromen-1-one] | 253 to 258 | ≤ 0.1 | *** (an EC1.5× between >0.3 nM and ≦1 nM is indicated by three stars (***)) | ***** (a fold increase >1.65 is indicated by five stars (*****))
CCCN1[C@H](C)CN(c2ccc3cc(-c4cn5cc(C)nc(C)c5n4)oc(=O)c3c2)C[C@@H]1C [Cpd 148, 3-(6,8-dimethylimidazo[1,2-a]pyrazin-2-yl)-7-[(3R,5S)-3,5-dimethyl-4-propylpiperazin-1-yl]-1H-isochromen-1-one] | 259 to 263 | ≤ 0.1 | *** (an EC1.5× between >0.3 nM and ≦1 nM is indicated by three stars (***)) | **** (a fold increase between >1.5 and ≦1.65 is indicated by four stars (****))
CCc1nc(C)cn2cc(-c3cc4ccc(N5CCN(C)CC5)cc4c(=O)o3)nc12 [Cpd 151, 3-(8-ethyl-6-methylimidazo[1,2-a]pyrazin-2-yl)-7-(4-methylpiperazin-1-yl)-1H-isochromen-1-one] | 229 to 234 | ≤ 0.1 | **** (an EC1.5×≦0.3 nM is indicated by four stars (****)) | ***** (a fold increase >1.65 is indicated by five stars (*****))
CCc1nc(C)cn2cc(-c3cc4ccc(N5CCN[C@@H](C)C5)cc4c(=O)o3)nc12 [Cpd 152, 3-(8-ethyl-6-methylimidazo[1,2-a]pyrazin-2-yl)-7-[(3S)-3-methylpiperazin-1-yl]-1H-isochromen-1-one] | 206 to 211 | ≤ 0.1 | **** (an EC1.5×≦0.3 nM is indicated by four stars (****)) | ***** (a fold increase >1.65 is indicated by five stars (*****))
CCc1nc(C)cn2cc(-c3cc4ccc(N5CCN[C@H](C)C5)cc4c(=O)o3)nc12 [Cpd 153, 3-(8-ethyl-6-methylimidazo[1,2-a]pyrazin-2-yl)-7-[(3R)-3-methylpiperazin-1-yl]-1H-isochromen-1-one] | 208 to 213 | ≤ 0.1 | **** (an EC1.5×≦0.3 nM is indicated by four stars (****)) | ***** (a fold increase >1.65 is indicated by five stars (*****))
CCc1nc(C)cn2cc(-c3cc4ccc(N5C[C@@H](C)N[C@@H](C)C5)cc4c(=O)o3)nc12 [Cpd 154, 7-[(3R,5S)-3,5-dimethylpiperazin-1-yl]-3-(8-ethyl-6-methylimidazo[1,2-a]pyrazin-2-yl)-1H-isochromen-1-one] | 239 to 244 | ≤ 0.1 | **** (an EC1.5×≦0.3 nM is indicated by four stars (****)) | ***** (a fold increase >1.65 is indicated by five stars (*****))
Cn1cc2cc(-c3cc4ccc(N5CCNCC5)cc4c(=O)o3)ccc2n1 [Cpd 156, 3-(2-methyl-2H-indazol-5-yl)-7-(piperazin-1-yl)-1H-isochromen-1-one] | 268 to 270 | ≤ 0.1 | **** (an EC1.5×≦0.3 nM is indicated by four stars (****)) | ***** (a fold increase >1.65 is indicated by five stars (*****))
CN1CCN(c2ccc3cc(-c4ccc5nn(C)cc5c4)oc(=O)c3c2)CC1 [Cpd 157, 3-(2-methyl-2H-indazol-5-yl)-7-(4-methylpiperazin-1-yl)-1H-isochromen-1-one] | 239 to 240 | ≤ 0.1 | **** (an EC1.5×≦0.3 nM is indicated by four stars (****)) | **** (a fold increase between >1.5 and ≦1.65 is indicated by four stars (****))
CCc1nc(C)cn2cc(-c3cc4ccc(N5C[C@@H](C)N(C)[C@@H](C)C5)cc4c(=O)o3)nc12 [Cpd 158, 3-(8-ethyl-6-methylimidazo[1,2-a]pyrazin-2-yl)-7-[(3R,5S)-3,4,5-trimethylpiperazin-1-yl]-1H-isochromen-1-one] | 235 to 238 | ≤ 0.1 | **** (an EC1.5×≦0.3 nM is indicated by four stars (****)) | ***** (a fold increase >1.65 is indicated by five stars (*****))
CCc1nc(C)cn2cc(-c3cc4ccc(C5=CCNCC5)cc4c(=O)o3)nc12 [Cpd 159, 3-(8-ethyl-6-methylimidazo[1,2-a]pyrazin-2-yl)-7-(1,2,3,6-tetrahydropyridin-4-yl)-1H-isochromen-1-one] | 239 to 241 | ≤ 0.1 | **** (an EC1.5×≦0.3 nM is indicated by four stars (****)) | ***** (a fold increase >1.65 is indicated by five stars (*****))

More lines, main results first:

melting point [°C] | Structure (SMILES) | EC (1.5-fold) [1] [µM] | EC1.5x for Smn protein expression (Smn protein) | maximum fold (Fold) increase of Smn protein (Smn protein)
256 to 261 | Cc1cn2cc(-c3cc4ccc(N5CCN(CCO)[C@H](C)C5)cc4c(=O)o3)nc2c(C)n1 [Cpd 142, 3-(6,8-dimethylimidazo[1,2-a]pyrazin-2-yl)-7-[(3R)-4-(2-hydroxyethyl)-3-methylpiperazin-1-yl]-1H-isochromen-1-one] | ≤ 0.1 | **** (an EC1.5×≦0.3 nM is indicated by four stars (****)) | ***** (a fold increase >1.65 is indicated by five stars (*****))
281 to 285 | Cc1cn2cc(-c3cc4ccc(N5CCN(C6CCC6)[C@H](C)C5)cc4c(=O)o3)nc2c(C)n1 [Cpd 143, 7-[(3R)-4-cyclobutyl-3-methylpiperazin-1-yl]-3-(6,8-dimethylimidazo[1,2-a]pyrazin-2-yl)-1H-isochromen-1-one] | ≤ 0.1 | **** (an EC1.5×≦0.3 nM is indicated by four stars (****)) | ***** (a fold increase >1.65 is indicated by five stars (*****))
262 to 267 | Cc1cn2cc(-c3cc4ccc(N5CCN(C(C)C)[C@H](C)C5)cc4c(=O)o3)nc2c(C)n1 [Cpd 144, 3-(6,8-dimethylimidazo[1,2-a]pyrazin-2-yl)-7-[(3R)-3-methyl-4-(propan-2-yl)piperazin-1-yl]-1H-isochromen-1-one] | ≤ 0.1 | **** (an EC1.5×≦0.3 nM is indicated by four stars (****)) | ***** (a fold increase >1.65 is indicated by five stars (*****))
205 to 210 | COCCN1CCN(c2ccc3cc(-c4cn5cc(C)nc(C)c5n4)oc(=O)c3c2)C[C@H]1C [Cpd 145, 3-(6,8-dimethylimidazo[1,2-a]pyrazin-2-yl)-7-[(3R)-4-(2-methoxyethyl)-3-methylpiperazin-1-yl]-1H-isochromen-1-one] | ≤ 0.1 | **** (an EC1.5×≦0.3 nM is indicated by four stars (****)) | ***** (a fold increase >1.65 is indicated by five stars (*****))
221 to 226 | COCCN1CCN(c2ccc3cc(-c4cn5cc(C)nc(C)c5n4)oc(=O)c3c2)C[C@@H]1C [Cpd 146, 3-(6,8-dimethylimidazo[1,2-a]pyrazin-2-yl)-7-[(3S)-4-(2-methoxyethyl)-3-methylpiperazin-1-yl]-1H-isochromen-1-one] | 0.1 to 0.3 | **** (an EC1.5×≦0.3 nM is indicated by four stars (****)) | ***** (a fold increase >1.65 is indicated by five stars (*****))
261 to 266 | Cc1cn2cc(-c3cc4ccc(N5C[C@@H](C)N(C)[C@@H](C)C5)cc4c(=O)o3)nc2c(C)n1 [Cpd 149, 3-(6,8-dimethylimidazo[1,2-a]pyrazin-2-yl)-7-[(3R,5S)-3,4,5-trimethylpiperazin-1-yl]-1H-isochromen-1-one] | ≤ 0.1 | **** (an EC1.5×≦0.3 nM is indicated by four stars (****)) | ***** (a fold increase >1.65 is indicated by five stars (*****))
233 to 238 | CCc1nc(C)cn2cc(-c3cc4ccc(N5CCN(C)[C@@H](C)C5)cc4c(=O)o3)nc12 [Cpd 155, 7-[(3S)-3,4-dimethylpiperazin-1-yl]-3-(8-ethyl-6-methylimidazo[1,2-a]pyrazin-2-yl)-1H-isochromen-1-one] | ≤ 0.1 | **** (an EC1.5×≦0.3 nM is indicated by four stars (****)) | ***** (a fold increase >1.65 is indicated by five stars (*****))
